What was measured:
Assay in all cases: relative viability (nuclei count vs DMSO), 5 days (fraction); higher = more cells survive
Tanzisertib + Pictilisib = compound: O[C@H]1CC[C@H](Nc2ncc3nc(Nc4c(F)cc(F)cc4F)n([C@H]4CCOC4)c3n2)CC1 [Tanzisertib] + CS(=O)(=O)N1CCN(Cc2cc3nc(-c4cccc5[nH]ncc45)nc(N4CCOCC4)c3s2)CC1 [Pictilisib] (partner 1 µM)
In short: (§1)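 Lung cancer cell lines were seeded in 1536-well plates and dosed by pin tool the next day, with either a single drug or a fixed anchor-drug dose combined with five library-drug doses (not always all listed) spaced in √10 steps. Five days later, one step fixed the cells and stained their nuclei (final 0.05% Triton X-100, 1% formaldehyde, 1 ug/ml Hoechst), and nuclei were counted on 4× images. Relative viability is the nuclei count in treated wells divided by the count in vehicle wells, and each value is the median of duplicate plates.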

Tanzisertib + Decitabine = compound: O[C@H]1CC[C@H](Nc2ncc3nc(Nc4c(F)cc(F)cc4F)n([C@H]4CCOC4)c3n2)CC1 [Tanzisertib] + Nc1ncn([C@H]2C[C@H](O)[C@@H](CO)O2)c(=O)n1 [Decitabine] (partner 2 µM)
In short: as §1

[1] = compound: C1CNCCC1C2=CC(=NN2)C3=CC=NC=C3 + CS(=O)(=O)N1CCN(Cc2cc3nc(-c4cccc5[nH]ncc45)nc(N4CCOCC4)c3s2)CC1 [Pictilisib] (partner 1 µM)
In short: as §1

[2] = compound: C1CNCCC1C2=CC(=NN2)C3=CC=NC=C3 + CS(=O)(=O)CCNCc1ccc(-c2ccc3ncnc(Nc4ccc(OCc5cccc(F)c5)c(Cl)c4)c3c2)o1 [Lapatinib] (partner 2 µM)
In short: as §1

Cell Line	relative viability (Tanzisertib + Pictilisib; first compound 0.08 µM)	relative viability (Tanzisertib + Pictilisib; first compound 0.253 µM)	relative viability (Tanzisertib + Pictilisib; first compound 0.8 µM)	relative viability (Tanzisertib + Pictilisib; first compound 2.53 µM)	relative viability (Tanzisertib + Pictilisib; first compound 8 µM)	relative viability (Tanzisertib + Decitabine; first compound 0.08 µM)	relative viability (Tanzisertib + Decitabine; first compound 0.253 µM)	relative viability (Tanzisertib + Decitabine; first compound 0.8 µM)	relative viability (Tanzisertib + Decitabine; first compound 2.53 µM)	relative viability (Tanzisertib + Decitabine; first compound 8 µM)	relative viability ([1]; first compound 0.08 µM)	relative viability ([1]; first compound 0.8 µM)	relative viability ([1]; first compound 2.53 µM)	relative viability ([1]; first compound 8 µM)	relative viability ([2]; first compound 0.08 µM)	relative viability ([2]; first compound 0.8 µM)	relative viability ([2]; first compound 2.53 µM)	relative viability ([2]; first compound 8 µM)
201T	0.748	0.676	0.684	0.687	0.649	0.862	0.902	0.853	0.857	0.85	0.724	0.664	0.7	0.681	0.975	0.978	0.994	0.986
A549	0.564	0.496	0.588	0.534	0.428	0.246	0.25	0.277	0.267	0.127	0.509	0.654	0.575	0.548	0.863	1.02	1.14	0.952
A-427	0.822	0.728	0.704	0.683	0.606	0.58	0.567	0.569	0.537	0.631	0.707	0.891	0.685	0.8	1.12	1.15	0.971	0.978
ABC-1	0.906	0.837	0.686	0.764	0.785	1.03	0.958	0.976	1.18	0.836	0.735	0.812	0.865	0.869	1.14	1.25	1.09	1.38
BEN	0.577	0.555	0.612	0.561	0.48	0.707	0.766	0.782	0.702	0.57	0.518	0.587	0.555	0.722	0.594	0.571	0.939	0.761
CAL-12T	0.416	0.468	0.438	0.485	0.353	–	–	–	–	–	0.619	0.549	0.481	0.616	0.714	0.613	0.811	0.666
COR-L23	0.922	0.736	0.781	0.97	0.869	0.454	0.502	0.411	0.511	0.467	0.824	0.903	0.924	0.832	0.989	1.3	0.98	1.01
COR-L 105	0.428	0.387	0.404	0.442	0.263	0.697	0.659	0.643	0.751	0.538	0.421	0.429	0.398	0.396	0.32	0.34	0.389	0.363
Calu-6	0.901	1.01	0.865	1.03	0.976	–	–	–	–	–	0.843	1.02	0.971	0.904	0.987	1.17	1.12	1.05
ChaGo-K-1	0.657	0.819	0.845	0.627	0.482	0.519	0.531	0.493	0.512	0.537	0.51	0.978	0.431	0.681	–	–	–	–
EBC-1	0.468	0.454	0.405	0.338	0.275	–	–	–	–	–	0.447	0.425	0.364	0.409	0.202	0.219	0.209	0.239
EKVX	0.425	0.392	0.405	0.42	0.329	0.371	0.356	0.41	0.323	0.324	0.42	0.516	0.42	0.447	0.211	0.184	0.208	0.208
EMC-BAC-2	0.606	0.534	0.57	0.528	0.419	1.05	0.947	0.957	0.96	0.937	0.449	0.613	0.544	0.517	0.682	0.927	0.897	0.87
EPLC-272H	0.396	0.328	0.397	0.337	0.199	0.43	0.366	0.43	0.381	0.353	0.384	0.361	0.285	0.337	0.92	1	1.14	1.03
H3255	0.548	0.452	0.487	0.457	0.253	0.799	0.598	0.647	0.482	0.448	0.469	0.477	0.511	0.442	0.265	0.255	0.262	0.261
HARA	0.475	0.337	0.321	0.436	0.412	0.602	0.579	0.504	0.566	0.539	0.419	0.421	0.437	0.402	0.755	0.874	0.736	0.701
HCC-15	0.836	0.651	0.786	0.698	0.494	0.66	0.674	0.737	0.659	0.647	0.738	0.772	0.722	0.75	0.849	0.953	0.871	0.823
HCC-44	0.638	0.701	0.565	0.442	0.569	0.94	0.978	0.998	0.975	0.955	0.585	0.648	0.716	0.593	1.04	1.14	1.04	0.966
HCC-78	0.215	0.175	0.23	0.219	0.192	0.683	0.675	0.666	0.704	0.622	0.21	–	0.189	0.223	0.723	–	0.871	0.86
